Experimental data published in the supplement of paper PMC10307832.

Assays:
Assay in all cases: relative viability (nuclei count vs DMSO), 5 days (fraction); higher = more cells survive
Daporinad + Navitoclax = compound: O=C(/C=C/c1cccnc1)NCCCCC1CCN(C(=O)c2ccccc2)CC1 [Daporinad] + CC1(C)CCC(c2ccc(Cl)cc2)=C(CN2CCN(c3ccc(C(=O)NS(=O)(=O)c4ccc(N[C@H](CCN5CCOCC5)CSc5ccccc5)c(S(=O)(=O)C(F)(F)F)c4)cc3)CC2)C1 [Navitoclax] (partner 0.5 µM)
How it was run: (§1)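 Relative viability equals treated-well nuclei counts divided by vehicle-well nuclei counts. Counts came from 4× images of lung cancer cell lines grown in 1536-well plates for 5 days after pin-tool dosing on the day after seeding. Dosing used one drug alone or a fixed anchor-drug dose plus five library-drug doses (not always all listed) in √10 steps, and values are medians of duplicate plates.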

Daporinad + Crizotinib = compound: O=C(/C=C/c1cccnc1)NCCCCC1CCN(C(=O)c2ccccc2)CC1 [Daporinad] + C[C@@H](Oc1cc(-c2cnn(C3CCNCC3)c2)cnc1N)c1c(Cl)ccc(F)c1Cl [Crizotinib] (partner 1 µM)
How it was run: as §1

R406 + Tozasertib = compound: COc1cc(Nc2ncc(F)c(Nc3ccc4c(n3)NC(=O)C(C)(C)O4)n2)cc(OC)c1OC [R406] + Cc1cc(Nc2cc(N3CCN(C)CC3)nc(Sc3ccc(NC(=O)C4CC4)cc3)n2)n[nH]1 [Tozasertib] (partner 0.1 µM)
How it was run: as §1

Daporinad + Pemetrexed = compound: O=C(/C=C/c1cccnc1)NCCCCC1CCN(C(=O)c2ccccc2)CC1 [Daporinad] + Nc1nc2[nH]cc(CCc3ccc(C(=O)N[C@@H](CCC(=O)O)C(=O)O)cc3)c2c(=O)[nH]1 [Pemetrexed] (partner 0.2 µM)
How it was run: as §1

Row | Cell Line | relative viability (Daporinad + Navitoclax; first compound 0.0005 µM) | relative viability (Daporinad + Navitoclax; first compound 0.001581 µM) | relative viability (Daporinad + Navitoclax; first compound 0.005 µM) | relative viability (Daporinad + Navitoclax; first compound 0.01581 µM) | relative viability (Daporinad + Crizotinib; first compound 0.0005 µM) | relative viability (Daporinad + Crizotinib; first compound 0.001581 µM) | relative viability (Daporinad + Crizotinib; first compound 0.005 µM) | relative viability (Daporinad + Crizotinib; first compound 0.01581 µM) | relative viability (R406 + Tozasertib; first compound 0.08 µM) | relative viability (R406 + Tozasertib; first compound 0.253 µM) | relative viability (R406 + Tozasertib; first compound 0.8 µM) | relative viability (R406 + Tozasertib; first compound 2.53 µM) | relative viability (R406 + Tozasertib; first compound 8 µM) | relative viability (Daporinad + Pemetrexed; first compound 0.0005 µM) | relative viability (Daporinad + Pemetrexed; first compound 0.001581 µM) | relative viability (Daporinad + Pemetrexed; first compound 0.005 µM) | relative viability (Daporinad + Pemetrexed; first compound 0.01581 µM)
1 | NCI-H1703 | 1.16 | 1.2 | 0.816 | 0.335 | 0.872 | 0.669 | 0.655 | 0.435 | – | – | – | – | – | – | – | – | –
2 | LCLC-103H | – | – | – | – | 1.08 | 1.03 | 1.14 | 1.09 | 0.524 | 0.495 | 0.569 | 0.503 | 0.376 | 0.497 | 0.453 | 0.508 | 0.471
3 | Calu-6 | 0.853 | 0.681 | 0.527 | 0.196 | 0.902 | 0.846 | 0.797 | 0.514 | – | – | – | – | – | – | – | – | –
4 | NCI-H1648 | – | – | – | – | – | – | – | – | – | – | 0.498 | 0.608 | 0.639 | 0.596 | 0.617 | 0.843 | 0.769
5 | NCI-H358 | – | – | – | – | 0.693 | 0.709 | 0.684 | 0.562 | 0.107 | 0.116 | 0.081 | 0.109 | 0.0818 | 0.199 | 0.168 | 0.183 | 0.185
6 | EBC-1 | 0.347 | 0.4 | 0.405 | 0.389 | 0.185 | 0.166 | 0.162 | 0.181 | – | – | – | – | – | – | – | – | –
7 | NCI-H1299 | 1.06 | 1.07 | 1.11 | 1.07 | 0.969 | 0.963 | 0.974 | 1.01 | – | – | – | – | – | – | – | – | –
8 | NCI-H522 | – | – | – | – | – | – | – | – | 0.467 | 0.527 | 0.562 | 0.582 | 0.433 | 0.983 | 1.3 | 1.09 | 0.668
9 | IA-LM | 0.733 | 0.809 | 0.772 | 0.599 | 0.734 | 0.917 | 1.05 | 0.82 | – | – | – | – | – | – | – | – | –
10 | NCI-H650 | – | – | – | – | 0.736 | 0.749 | 0.75 | 0.798 | 0.701 | 0.885 | 0.699 | 0.614 | 0.599 | 0.903 | 0.949 | 1.02 | 1.16
11 | NCI-H1793 | 0.453 | 0.499 | 0.38 | 0.569 | – | – | – | – | 0.333 | 0.353 | 0.389 | 0.155 | 0.109 | 0.727 | 1.03 | 1 | 1.05
12 | NCI-H661 | – | – | – | – | 0.975 | 0.998 | 1.04 | 0.52 | 0.337 | 0.322 | 0.32 | 0.348 | 0.324 | 0.959 | 0.791 | 0.652 | 0.51
13 | NCI-H727 | 0.409 | 0.568 | 0.483 | 0.29 | 0.713 | 0.786 | 0.938 | 0.698 | 0.586 | 0.566 | 0.694 | 0.594 | 0.433 | – | – | – | –
14 | NCI-H1623 | – | – | – | – | – | – | – | – | 0.447 | 0.419 | 0.442 | 0.429 | 0.401 | – | – | – | –
